Assay results as given in US20230364057A1, “BACTERIAL DNA GYRASE INHIBITORS AND METHODS OF USE THEREOF” (THE FLORIDA INTERNATIONAL UNIVERSITY BOARD OF TRUSTEES, priority 2022, published 2023).
In brackets after ≈: the same amount, converted by molar mass. Several values for one entry are separate records, joined by “and”; a condition that tells them apart may be missing. Identical values can stand only once. Entries after “also recorded” stand apart in the source; their conditions may differ. Like-named read-outs stand apart in the source and are kept apart here.

Tests used:
[1] = biological target: human DNA topoisomerase IIα (Homo sapiens (Human), UniProt P11388); assay: Agarose gel-based inhibition assay against human DNA topoisomerase IIα; format: biochemical; conditions: for inhibition of human DNA topoisomerase IIα: gallates at 100 µM
Sequence of human DNA topoisomerase IIα (P11388 whole entry): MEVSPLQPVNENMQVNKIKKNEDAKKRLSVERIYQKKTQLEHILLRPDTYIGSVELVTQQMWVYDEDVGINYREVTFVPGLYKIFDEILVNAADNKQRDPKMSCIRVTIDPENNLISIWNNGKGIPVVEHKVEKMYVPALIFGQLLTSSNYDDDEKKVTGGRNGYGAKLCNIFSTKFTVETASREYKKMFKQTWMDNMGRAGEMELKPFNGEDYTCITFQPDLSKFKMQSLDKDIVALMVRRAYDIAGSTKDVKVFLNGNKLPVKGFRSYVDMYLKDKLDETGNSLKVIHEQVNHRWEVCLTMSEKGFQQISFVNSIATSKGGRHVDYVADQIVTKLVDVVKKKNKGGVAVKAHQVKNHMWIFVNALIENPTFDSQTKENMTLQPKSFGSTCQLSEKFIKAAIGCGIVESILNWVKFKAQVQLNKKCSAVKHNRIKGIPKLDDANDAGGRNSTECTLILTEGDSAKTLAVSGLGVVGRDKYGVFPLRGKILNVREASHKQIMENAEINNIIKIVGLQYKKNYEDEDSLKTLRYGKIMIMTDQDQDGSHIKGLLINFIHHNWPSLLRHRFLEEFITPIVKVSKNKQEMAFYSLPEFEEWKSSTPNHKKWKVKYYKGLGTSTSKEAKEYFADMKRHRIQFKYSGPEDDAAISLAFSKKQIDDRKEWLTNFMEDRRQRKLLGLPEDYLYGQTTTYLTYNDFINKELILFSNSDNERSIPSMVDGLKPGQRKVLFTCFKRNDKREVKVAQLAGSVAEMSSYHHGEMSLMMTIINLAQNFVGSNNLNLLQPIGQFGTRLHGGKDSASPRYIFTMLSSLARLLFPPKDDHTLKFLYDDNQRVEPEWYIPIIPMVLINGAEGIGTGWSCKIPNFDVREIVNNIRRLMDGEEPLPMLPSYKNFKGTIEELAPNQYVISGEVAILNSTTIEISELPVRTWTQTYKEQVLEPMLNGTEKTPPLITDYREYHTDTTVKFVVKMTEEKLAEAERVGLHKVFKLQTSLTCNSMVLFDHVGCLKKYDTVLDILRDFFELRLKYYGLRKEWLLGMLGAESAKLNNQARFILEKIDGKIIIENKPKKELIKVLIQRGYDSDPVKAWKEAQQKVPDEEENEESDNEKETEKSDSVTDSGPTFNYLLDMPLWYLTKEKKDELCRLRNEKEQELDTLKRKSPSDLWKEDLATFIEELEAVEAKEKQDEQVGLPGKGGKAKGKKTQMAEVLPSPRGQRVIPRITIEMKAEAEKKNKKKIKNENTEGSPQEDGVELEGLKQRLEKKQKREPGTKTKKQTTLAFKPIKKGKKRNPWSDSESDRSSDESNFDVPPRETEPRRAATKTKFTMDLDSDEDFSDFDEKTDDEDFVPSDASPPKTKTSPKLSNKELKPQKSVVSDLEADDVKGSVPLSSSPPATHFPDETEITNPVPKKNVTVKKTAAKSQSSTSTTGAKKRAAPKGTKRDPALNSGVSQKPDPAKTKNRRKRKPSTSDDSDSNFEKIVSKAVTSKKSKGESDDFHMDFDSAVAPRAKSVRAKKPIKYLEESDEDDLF

E. coli DNA gyrase [2] = biological target: T1, E. coli DNA gyrase (Escherichia coli (strain K12), UniProt P0AES4+P0AES6); assay: SDFQ-based DNA gyrase inhibition assay; format: biochemical
Protocol: 100 ng of DNA gyrase was used to supercoil the rx pAB1_FL905 in the presence of different concentrations of a gyrase inhibitor. […] The IC50 values were estimated by nonlinear fitting of the following equation: […]
where F is the fluorescence intensity at the x concentration of an min inhibitor. Fmax and Fmin are the maximum and minimum fluorescence of the DNA sample, respectively. P is a slope parameter.

B. subtilis (ATCC 6633) = assay: Minimum inhibitory concentration, broth microdilution; conditions: for MIC: Bacillus subtilis
E. coli DNA gyrase [3] = biological target: T1, E. coli DNA gyrase; assay: DNA gyrase mediated DNA cleavage assay; format: biochemical; conditions: pBR322
Protocol: 250 ng of supercoiled pBR322 plasmid were incubated with 50 nM of E. coli DNA gyrase in reactions containing 35 mM Tris-HCl, 24 mM KCl, 4 mM MgCl2, 2 mM DTT, 0.1 mg/mL BSA, 6.5% glycerol, and 1.75 mM ATP, in presence of 200 µM of compounds, at 37° C. for 15 min. Then, 0.2% (w/v) of SDS and 0.1 mg/mL proteinase K were added, and samples were incubated at 37° C. for 1 h. […] Samples were examined by electrophoresis in 1% w/v agarose gel containing 0.5 µg/mL ethidium bromide and photographed under UV light.

E. coli DNA gyrase [4] = biological target: T1, E. coli DNA gyrase; assay: biochemical; format: biochemical
E. coli DNA gyrase [5] = biological target: T1, E. coli DNA gyrase; assay: Agarose gel-based DNA gyrase inhibition assay; format: biochemical
Protocol: 100 ng of DNA gyrase was used to supercoil the rx pAB1 in the presence of different concentrations of a gyrase inhibitor. […] Samples were analyzed by electrophoresis in 1% w/v agarose gels followed by ethidium bromide staining and photographed under UV light.

[6] = biological target: human DNA topoisomerase 2α (Homo sapiens (Human), UniProt P11388); assay: Human DNA topoisomerase 2α-mediated DNA cleavage assay; format: biochemical; conditions: pBR322
Sequence of human DNA topoisomerase 2α (P11388 whole entry): as above

MRSA = assay: Minimum inhibitory concentration, broth microdilution; conditions: for MIC: Staphylococcus aureus
Protocol: (§2) Antibacterial minimum inhibitory concentrations (MICs) were obtained from three independent experiments using broth microdilution methods in 96-well plates according to Clinical and Laboratory Standards Institute guidelines. Cells were culture from singles colonies in MHIIB medium for 24 h at 37° C. in agitation (200 RPM). The cultures were then diluted using the same media to reach an OD600 of 0.1. Then, 50 µL of the diluted cultures were added to the plates holding 50 µL of serially diluted compounds in MHIIB. The plates were incubated at 37° C. for 20 h. The starting inoculum was fixated to 10^5 colony-forming units per ml.

S. aureus (ATCC 14775) = assay: as above; conditions: for MIC: Staphylococcus aureus
Protocol: as §2

J774 = conditions: 200 µM
in vitro [7] = conditions: human
Mtb = Mtb whole cell assay (% inhibition, MIC); format: cell-based, Mycobacterium tuberculosis
in vitro [8] = conditions: mouse
Mtb DNA gyrase = Mtb DNA gyrase (Mycobacterium tuberculosis (strain ATCC 25618 / H37Rv), UniProt P9WG45+P9WG47); assay: Mtb DNA gyrase inhibition assay (gel-based); format: biochemical
Method in brief: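 Supercoiling by 100 ng Mtb gyrase of 400 ng relaxed pAB1 in buffer with 1.75 mM ATP, pH 7.5, across inhibitor concentrations. Reactions ran 15 min at 37° C, stopped with SDS/EDTA. Products resolved on 1% agarose, ethidium bromide-stained; IC50 determined from gels.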

E. coli (ATCC 25922) = assay: Minimum inhibitory concentration, broth microdilution; conditions: for MIC: Escherichia coli
[9] = biological target: T2, E. coli DNA topoisomerase IV (Escherichia coli (strain K12), UniProt P0AFI2+P20083); assay: E. coli DNA topoisomerase IV relaxation assay (gel-based); format: biochemical
T2 sequence (P0AFI2 whole entry, looked up): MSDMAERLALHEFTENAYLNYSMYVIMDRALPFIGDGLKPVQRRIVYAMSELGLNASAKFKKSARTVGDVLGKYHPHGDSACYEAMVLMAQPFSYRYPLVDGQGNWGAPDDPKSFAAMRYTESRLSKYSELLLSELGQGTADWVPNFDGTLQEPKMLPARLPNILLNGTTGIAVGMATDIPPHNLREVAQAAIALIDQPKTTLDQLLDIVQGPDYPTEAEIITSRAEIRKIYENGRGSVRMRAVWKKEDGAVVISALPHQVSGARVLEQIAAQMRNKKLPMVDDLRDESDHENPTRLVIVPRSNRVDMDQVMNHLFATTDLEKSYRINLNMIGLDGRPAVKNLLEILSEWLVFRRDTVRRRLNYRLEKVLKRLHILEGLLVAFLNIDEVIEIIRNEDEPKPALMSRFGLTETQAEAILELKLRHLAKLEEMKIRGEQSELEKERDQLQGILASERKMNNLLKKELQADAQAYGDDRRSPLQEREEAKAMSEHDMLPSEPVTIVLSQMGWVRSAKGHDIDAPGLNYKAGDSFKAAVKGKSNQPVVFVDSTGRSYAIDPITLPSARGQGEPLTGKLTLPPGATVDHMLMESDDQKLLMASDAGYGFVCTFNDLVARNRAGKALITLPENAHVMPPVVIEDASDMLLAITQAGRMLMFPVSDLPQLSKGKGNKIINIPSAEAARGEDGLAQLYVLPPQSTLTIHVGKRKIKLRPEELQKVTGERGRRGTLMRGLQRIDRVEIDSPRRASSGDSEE
T2 sequence (P20083 whole entry, looked up): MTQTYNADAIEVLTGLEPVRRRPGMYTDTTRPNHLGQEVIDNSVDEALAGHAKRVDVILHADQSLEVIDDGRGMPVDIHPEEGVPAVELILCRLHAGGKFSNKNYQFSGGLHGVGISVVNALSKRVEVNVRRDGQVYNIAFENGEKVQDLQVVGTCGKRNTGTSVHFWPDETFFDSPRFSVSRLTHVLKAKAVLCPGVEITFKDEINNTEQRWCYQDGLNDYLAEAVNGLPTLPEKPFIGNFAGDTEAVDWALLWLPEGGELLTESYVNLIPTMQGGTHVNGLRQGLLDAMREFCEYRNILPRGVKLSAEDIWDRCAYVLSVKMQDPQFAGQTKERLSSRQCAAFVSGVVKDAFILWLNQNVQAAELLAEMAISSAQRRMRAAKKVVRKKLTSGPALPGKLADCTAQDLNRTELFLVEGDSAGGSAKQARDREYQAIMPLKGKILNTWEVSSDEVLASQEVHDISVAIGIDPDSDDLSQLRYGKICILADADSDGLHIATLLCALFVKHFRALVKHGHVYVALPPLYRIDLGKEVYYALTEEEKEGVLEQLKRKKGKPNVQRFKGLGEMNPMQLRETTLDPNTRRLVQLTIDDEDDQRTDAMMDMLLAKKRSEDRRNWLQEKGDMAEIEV
Protocol: (§1) Relaxation assays by E. coli DNA topoisomerase IV and the ATPase assays were performed. […] Lane 1 is supercoiled plasmid pAB1. […] The supercoiled, fluorescently-labeled plasmid pAB1_FL905 was used.

[10] = biological target: E. coli DNA topoisomerase I (Escherichia coli (strain K12), UniProt P06612); assay: E. coli DNA topoisomerase I inhibition; format: biochemical; conditions: gallates at 100 µM
Sequence of E. coli DNA topoisomerase I (P06612 whole entry, looked up): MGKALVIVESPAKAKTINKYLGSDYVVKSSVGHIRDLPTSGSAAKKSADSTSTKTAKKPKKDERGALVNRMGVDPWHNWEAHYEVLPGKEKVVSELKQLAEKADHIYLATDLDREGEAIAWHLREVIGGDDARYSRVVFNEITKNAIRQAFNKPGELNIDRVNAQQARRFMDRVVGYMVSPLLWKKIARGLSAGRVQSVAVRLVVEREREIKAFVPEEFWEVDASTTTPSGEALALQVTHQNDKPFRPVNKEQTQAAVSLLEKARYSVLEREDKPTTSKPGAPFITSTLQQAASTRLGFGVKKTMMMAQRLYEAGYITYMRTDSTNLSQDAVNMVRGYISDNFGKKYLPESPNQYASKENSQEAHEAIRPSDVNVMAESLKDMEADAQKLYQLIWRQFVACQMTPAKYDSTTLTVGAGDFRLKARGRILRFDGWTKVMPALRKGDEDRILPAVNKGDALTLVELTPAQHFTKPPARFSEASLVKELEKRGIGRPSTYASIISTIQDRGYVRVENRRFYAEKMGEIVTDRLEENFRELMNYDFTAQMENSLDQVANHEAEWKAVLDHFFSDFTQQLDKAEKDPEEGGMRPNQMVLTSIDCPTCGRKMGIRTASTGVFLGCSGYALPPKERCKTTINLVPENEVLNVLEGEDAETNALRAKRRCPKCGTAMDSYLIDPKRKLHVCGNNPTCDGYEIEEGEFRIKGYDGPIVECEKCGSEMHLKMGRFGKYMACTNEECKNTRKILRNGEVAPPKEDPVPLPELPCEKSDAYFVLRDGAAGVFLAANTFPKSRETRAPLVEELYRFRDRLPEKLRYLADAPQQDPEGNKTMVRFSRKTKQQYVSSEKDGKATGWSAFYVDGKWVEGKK

E. coli DNA gyrase [11] = biological target: T1, E. coli DNA gyrase; assay: E. coli DNA gyrase ATPase assay; format: biochemical
Protocol: E. coli DNA gyrase ATPase assays were performed in 60 µL of 1 ×gyrase ATPase buffer (10 mM Tris.HCl (pH 7.5), 0.2 mM EDTA, 1 mM magnesium chloride, 1 mM DTT, and 2% (w/v) glycerol) containing 50 nM E. coli DNA gyrase, 200 ng rx pAB1, 0.8 mM Phosphoenol pyruvate, 1.2 units of Pyruvate kinase, 1.7 units of lactate dehydrogenase, and 0.4 mM of NADH at 37° C. After the reaction mixtures are incubated on ice for 5 minutes, 2 mM of ATP is added to initiate the reaction. Absorbance at OD340nm is monitored for up to 30 minutes at 37° C. in a spectrophotometer.

[12] = biological target: T2, E. coli DNA topoisomerase IV; assay: SDFQ-based DNA relaxation assay with E. coli DNA topoisomerase IV; format: biochemical
Protocol: as §1

E. coli topoisomerase IV = E. coli topoisomerase IV (Escherichia coli (strain K12), UniProt P0AFI2+P20083); assay: E. coli topoisomerase IV decatenation; format: biochemical; conditions: read-out: IC50 against E. coli topoisomerase IV
Sequence of E. coli topoisomerase IV (P0AFI2 whole entry, looked up): as the sequence (P0AFI2 whole entry, looked up) above
Sequence of E. coli topoisomerase IV (P20083 whole entry, looked up): as the sequence (P20083 whole entry, looked up) above

[13] = biological target: human DNA topoisomerase I (Homo sapiens (Human), UniProt P11387); assay: Human DNA topoisomerase I inhibition; format: biochemical; conditions: gallates at 100 µM
Sequence of human DNA topoisomerase I (P11387 whole entry): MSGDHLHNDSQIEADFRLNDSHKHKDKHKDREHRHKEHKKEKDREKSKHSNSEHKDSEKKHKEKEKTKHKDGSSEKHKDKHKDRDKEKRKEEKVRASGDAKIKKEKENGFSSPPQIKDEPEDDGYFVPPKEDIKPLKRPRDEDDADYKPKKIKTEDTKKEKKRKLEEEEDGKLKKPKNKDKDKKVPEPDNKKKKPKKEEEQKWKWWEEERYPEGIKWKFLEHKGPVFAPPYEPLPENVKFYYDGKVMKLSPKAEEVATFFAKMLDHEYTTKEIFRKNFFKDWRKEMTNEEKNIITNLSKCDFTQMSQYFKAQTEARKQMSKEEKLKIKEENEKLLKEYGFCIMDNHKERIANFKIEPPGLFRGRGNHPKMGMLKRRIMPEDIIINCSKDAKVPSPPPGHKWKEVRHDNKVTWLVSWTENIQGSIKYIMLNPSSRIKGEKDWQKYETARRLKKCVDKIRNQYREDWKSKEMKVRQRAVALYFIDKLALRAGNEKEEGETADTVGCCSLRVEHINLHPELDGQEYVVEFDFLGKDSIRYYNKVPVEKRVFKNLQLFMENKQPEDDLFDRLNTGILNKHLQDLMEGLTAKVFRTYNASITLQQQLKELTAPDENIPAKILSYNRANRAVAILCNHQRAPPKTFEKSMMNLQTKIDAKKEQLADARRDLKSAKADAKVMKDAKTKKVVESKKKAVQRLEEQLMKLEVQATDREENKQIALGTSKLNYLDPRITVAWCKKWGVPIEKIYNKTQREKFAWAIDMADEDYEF

[14] = biological target: T2, E. coli DNA topoisomerase IV; assay: ATP hydrolysis activity of E. coli DNA topoisomerase IV; format: biochemical; conditions: 100 µM
Protocol: as §1

E. coli imp [15] = assay: microbe, parasite or virus in culture; conditions: Escherichia coli, read-out: MIC E. coli imp BAS3023
Protocol: as §2

E. coli imp [16] = tested on: E. coli imp
Protocol: as §2

[17] = SDFQ-based, three independent experiments, read-out: IC50 against E. coli DNA gyrase
[18] = ATCC6633, read-out: Minimum Inhibitory Concentration B.subtilis
[19] = IC50 against E. coli DNA gyrase
[20] = MRSA, read-out: Minimum Inhibitory Concentration S.aureus MRSA
[21] = ATCC14775, read-out: Minimum Inhibitory Concentration S.aureus

In the case of `CC(OC(=O)c1cc(O)c2ccccc2c1O)C(=O)Nc1ccc(C(N)=O)cc1` (stereo not shown) [Compound 40, 1-[(4-carbamoylphenyl)carbamoyl]ethyl 1,4-dihydroxynaphthalene-2-carboxylate], the “inhibition of human DNA topoisomerase IIα” value [1] is reported as “does not inhibit”, the IC50 (E. coli DNA gyrase [2]; [17]) is reported as 47.6 ± 3.7 µM and the “anti Bacillu subtilis activities” value (B. subtilis (ATCC 6633)) is reported as 39 µg/mL. The MIC (B. subtilis (ATCC 6633); [18]) was 100 µM (≈ 39.4 µg/mL), the “E. coli DNA gyrase-mediated DNA breaks and nicking” value (E. coli DNA gyrase [3]) was “causes DNA gyrase-mediated double stranded DNA breaks and DNA nicking; also recorded: causes gyrase-mediated DNA double-stranded breaks and single-stranded nicks” and the IC50 (E. coli DNA gyrase [4]; IC50 (50-200 µM), bin of Table 2) was 50 to 200 µM. The IC50 (E. coli DNA gyrase [4]; [19]) was 50 µM, the “inhibition of E. coli DNA gyrase activities” value (E. coli DNA gyrase [5]; 200 µM of compounds) was “completely inhibited” and the “human topoisomerase 2α-mediated DNA nicks and double-stranded breaks” value [6] was “does not cause”.
With `Cc1c(CCC(=O)O)c(=O)oc2c(C)c3occ(-c4ccc5ccccc5c4)c3cc12` [Compound 124] the IC50 [1] was 117 µM, the MIC (MRSA; MRSA, read-out: MIC (µM) MRSA) was 1.6 µM and the MIC (MRSA; [20]) was 1.56 µM. For the same molecule, the MIC (S. aureus (ATCC 14775); ATCC14775, read-out: MIC (µM) SA) was 1.6 µM (≈ 0.66 µg/mL), the MIC (S. aureus (ATCC 14775); [21]) was 1.56 µM (≈ 0.643 µg/mL) and the IC50 (E. coli DNA gyrase [4]; IC50 (µM) EC, Table 5, E. coli gyrase) was 5.5 µM. For the same molecule, the “inhibition of E. coli DNA gyrase activities” value (E. coli DNA gyrase [5]; 50 µM of compounds) was “completely inhibited”, the “cytotoxicity J774” value (J774) was “no cytotoxicity” and the IC50 (in vitro [7]) was greater than 200 µM. For the same molecule, the “activity against Mtb” value (Mtb) was “most active”, the inhibition at 20 µM (Mtb; Mycobacterium tuberculosis, Table 5 (same values in Table 6 at 20 µM)) was 80.4% and the IC50 (in vitro [8]) was greater than 200 µM. For the same molecule, the “inhibition of Mtb DNA gyrase activities” value (Mtb DNA gyrase) was “potent Mtb gyrase inhibitors” and the IC50 (Mtb DNA gyrase; Table 5, Mtb gyrase, read-out: IC50 (µM) Mtb) was 3 µM.
With `N=C(N)Nc1nc(-c2ccccc2)c2cc(Cl)ccc2n1` [Compound 154, N-(6-chloro-4-phenylquinazolin-2-yl)guanidine] the IC50 [1] was roughly 50 µM, the IC50 (E. coli DNA gyrase [2]; [17]) was 3.1 ± 0.7 µM and the MIC (B. subtilis (ATCC 6633); [18]) was 25 µM (≈ 7.44 µg/mL). The MIC (MRSA; [20]) was 25 µM, the MIC (E. coli (ATCC 25922); ATCC25922, read-out: Minimum Inhibitory Concentration E. coli, Tables 3a-3c) was 50 µM (≈ 14.9 µg/mL) and the “E. coli DNA gyrase-mediated DNA breaks and nicking” value (E. coli DNA gyrase [3]) was “causes the gyrase-mediated DNA double-stranded breaks and single-stranded nicks”. For the same molecule, the MIC (S. aureus (ATCC 14775); [21]) was 25 µM (≈ 7.44 µg/mL), the IC50 (E. coli DNA gyrase [4]; [19]) was 7 µM and the “inhibition of E. coli DNA gyrase activities” value (E. coli DNA gyrase [5]; 50 µM of compounds) was “completely inhibited”. The “human topoisomerase 2α-mediated DNA nicks and double-stranded breaks” value [6] was “causes the human topoisomerase 2a-mediated DNA nicks and double-stranded breaks” and the “inhibition of E. coli DNA topoisomerase IV” value [9] was “inhibits”.
For `O=C(O)c1cc(O)c(O)c(OC(=O)c2cc(O)c(O)c(O)c2)c1` [Digallic acid, digallic acid], the “inhibition of human DNA topoisomerase IIα” value [1] was “do not inhibit; also recorded: did not strongly inhibit”, the IC50 (E. coli DNA gyrase [2]; Table 8, read-out: IC50 Gyrase SDFQ) was 1.9 µM and the “inhibition of E. coli DNA topoisomerase I” value [10] was “do not inhibit; also recorded: did not strongly inhibit”. For the same molecule, the “inhibition of the ATPase activities of E. coli DNA gyrase” value (E. coli DNA gyrase [11]; AB-MECA and gallates at 100 µM) was “competitive inhibitor”, the Ki (E. coli DNA gyrase [11]; ATPase, ATP competitive, read-out: Ki) was 0.347 µM and the IC50 [12] was 7.3 µM. The MIC (B. subtilis (ATCC 6633); ATCC6633, read-out: MIC B. subtilis ATCC 6633) was > 64 µg/mL and > 200 µM, the MIC (MRSA; ATCC33591 / MRSA, read-out: MIC MRSA ATCC 33591) was 200 µM and the MIC (MRSA; ATCCBAA44 / MRSA, read-out: MIC S. aureus (MRSA) ATCC BAA44) was 64 µg/mL. The IC50 (E. coli topoisomerase IV) was roughly 4 µM, the MIC (E. coli (ATCC 25922); ATCC25922, read-out: MIC E coli ATCC 25922, Table 9) was greater than 200 µM and the “inhibition of human DNA topoisomerase I” value [13] was “do not inhibit; also recorded: did not strongly inhibit”. For the same molecule, the “E. coli DNA gyrase-mediated DNA breaks and nicking” value (E. coli DNA gyrase [3]) was “not bacterial DNA gyrase poisons”, the “inhibition of the ATPase activities of bacterial DNA topoisomerase IV” value [14] was “inhibit the ATPase activities” and the MIC (S. aureus (ATCC 14775); ATCC14775, read-out: MIC S. aureus ATCC 14775) was 64 µg/mL and 200 µM. The IC50 (E. coli DNA gyrase [5]; gel-based, read-out: IC50 against E. coli DNA gyrase) was 2 µM, the MIC (E. coli imp [15]) was greater than 200 µM and the IC50 ([9]; IC50 Topoisomerase IV Gel-based, Table 8) was 8 µM. It also gave an IC50 ([9]; IC50 against E. coli DNA topoisomerase IV, relaxation) of roughly 8 µM.
For biphenyl gallate, the “MIC E. coli imp” value (E. coli imp [16]; Table 7) was 36.43 µg/mL, the “MIC E. coli imp BAS3023” value (E. coli imp [16]; Table 9) was 200 µM and the “MIC B. subtilis ATCC 6633” value (B. subtilis (ATCC 6633)) was 16 µg/mL and 50-100 µM. The “MIC MRSA ATCC 33591” value (MRSA) was 50 µM, the “MIC S. aureus (MRSA) ATCC BAA44” value (MRSA) was 16 µg/mL and the “MIC E coli ATCC 25922” value (E. coli (ATCC 25922)) was greater than 200 µM. The “MIC E. coli ATCC 25922” value (E. coli (ATCC 25922)) was 517.29 µg/mL and the “MIC S. aureus ATCC 14775” value (S. aureus (ATCC 14775)) was 16 µg/mL and 50 µM.
